Laboratory results from patent US20240208972A1, “LRRK2 INHIBITORS AND USES THEREOF” (NEURON23, INC., priority 2022, published 2024).

Columns and labels:
Caco-2 cells = experiment: Caco-2 bidirectional permeability; type: in vitro ADME; conditions: for Caco-2 A2B (10^−6 cm/s): A to B; for Caco-2 A2B (10^−6 cm/s) / Caco-2 B2A (10^−6 cm/s): HBSS pH 7.4, 2 hours; for Caco-2 B2A (10^−6 cm/s): B to A; for Caco-2 ER: Efflux Ratio=Papp (BA)/Papp (AB)
In short: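 Caco-2 monolayers grown 21–28 days on PET inserts were run in duplicate in HBSS with 10 mM HEPES, pH 7.4. Compound was tested in both directions at […] for 2 h at 37 °C and quantified by LC-MS/MS. Papp, % recovery and efflux ratio (B-A/A-B) were calculated, with lucifer yellow checking monolayer integrity.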

[1] = Human hepatocyte stability, in vitro h-Hept CLpredict; type: in vitro ADME; conditions: cryopreserved hepatocytes, predicted hepatic clearance, cells without asterisk, read-out: hHep Cl
In short: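 Cryopreserved human hepatocytes at 0.5×10^6 viable cells/mL in William's E medium, compound added from 100 μM solution, sampled 0–120 min in duplicate with LC/MS/MS quantitation. t1/2 from parent disappearance converted to CLint, then scaled to predicted hepatic clearance (well-stirred model, fub assumed 1) and extraction ratio.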

Compound	Caco-2 A2B (10^−6 cm/s) (Caco-2 cells)	Caco-2 B2A (10^−6 cm/s) (Caco-2 cells)	Caco-2 ER (Caco-2 cells)	CLhep predicted at 1 µM [1]
Cc1n[nH]c2c1N=C(c1c(F)cccc1F)Nc1ccc(N3CCOCC3)cc1-2 [Example 29, 4-(5-(2,6-difluorophenyl)-3-methyl-1,6-dihydrobenzo[d]pyrazolo[3,4-f][1,3]diazepin-9-yl)morpholine]	H (H (High permeability)”: A2B (B2A)>5)	H (H (High permeability)”: A2B (B2A)>5)	N (N (Non-substrate)”: ER<2.5)	6.3 to 14.7 mL/min/kg
Cc1n[nH]c2c1N=C(c1c(F)cccc1F)Nc1ccc(-c3cnn(C(F)F)c3)cc1-2 [Example 13, 9-[1-(difluoromethyl)pyrazol-4-yl]-5-(2,6-difluorophenyl)-3-methyl-1,6-dihydropyrazolo[4,3-d][1,3]benzodiazepine]	H (H (High permeability)”: A2B (B2A)>5)	H (H (High permeability)”: A2B (B2A)>5)	N (N (Non-substrate)”: ER<2.5)	6.3 to 14.7 mL/min/kg
Cc1n[nH]c2c1N=C(c1c(F)cccc1F)Nc1cnc(-c3ccn(C(F)F)n3)cc1-2 [Example 12, 13-[1-(difluoromethyl)pyrazol-3-yl]-8-(2,6-difluorophenyl)-5-methyl-3,4,7,9,12-pentazatricyclo[8.4.0.02,6]tetradeca-1(10),2(6),4,7,11,13-hexaene]	H (H (High permeability)”: A2B (B2A)>5)	H (H (High permeability)”: A2B (B2A)>5)	N (N (Non-substrate)”: ER<2.5)	< 6.3 mL/min/kg
Cc1n[nH]c2c1N=C(c1c(F)cccc1F)Nc1cnc(C#CC3(C)CCOCC3)cc1-2 [Example 17, 8-(2,6-difluorophenyl)-5-methyl-13-[2-(4-methyltetrahydropyran-4-yl)ethynyl]-3,4,7,9,12-pentazatricyclo[8.4.0.02,6]tetradeca-1(10),2(6),4,7,11,13-hexaene]	M (M (Moderate permeability)”: 1≤A2B (B2A)≤5)	H (H (High permeability)”: A2B (B2A)>5)	L (L (Likely)”: ER>2.5)	> 14.7 mL/min/kg
Cc1n[nH]c2c1N=C(c1c(F)cccc1F)Nc1c-2cc(N2CCN(CC(C)F)CC2)nc1C (racemic) [Example 20, 8-(2,6-difluorophenyl)-13-[4-(2-fluoropropyl)piperazin-1-yl]-5,11-dimethyl-3,4,7,9,12-pentazatricyclo[8.4.0.02,6]tetradeca-1(10),2(6),4,7,11,13-hexaene]	H (H (High permeability)”: A2B (B2A)>5)	H (H (High permeability)”: A2B (B2A)>5)	N (N (Non-substrate)”: ER<2.5)	< 6.3 mL/min/kg
Cc1n[nH]c2c1N=C(c1c(F)cccc1F)Nc1cnc(-c3cnn(C(F)F)c3)cc1-2 [Example 1, 9-(1-(difluoromethyl)-1H-pyrazol-4-yl)-5-(2,6-difluorophenyl)-3-methyl-1,6-dihydropyrazolo[4,3-d]pyrido[4,3-f][1,3]diazepine]	H (H (High permeability)”: A2B (B2A)>5)	H (H (High permeability)”: A2B (B2A)>5)	N (N (Non-substrate)”: ER<2.5)	< 6.3 mL/min/kg
Cc1n[nH]c2c1N=C(c1c(F)cccc1F)Nc1ccc(N3CCO[C@@H](C)C3)cc1-2 [Example 26, (S)-4-(5-(2,6-difluorophenyl)-3-methyl-1,6-dihydrobenzo[d]pyrazolo[3,4-f][1,3]diazepin-9-yl)-2-methylmorpholine]	H (H (High permeability)”: A2B (B2A)>5)	H (H (High permeability)”: A2B (B2A)>5)	N (N (Non-substrate)”: ER<2.5)	< 6.3 mL/min/kg
Cc1n[nH]c2c1N=C(c1c(F)cccc1F)Nc1c-2cc(N2CCN(CC(F)(F)F)CC2)nc1C [Example 23, 5-(2,6-difluorophenyl)-3,7-dimethyl-9-(4-(2,2,2-trifluoroethyl)piperazin-1-yl)-1,6-dihydropyrazolo[4,3-d]pyrido[4,3-f][1,3]diazepine]	H (H (High permeability)”: A2B (B2A)>5)	H (H (High permeability)”: A2B (B2A)>5)	N (N (Non-substrate)”: ER<2.5)	6.3 to 14.7 mL/min/kg
Fc1cccc(F)c1C1=Nc2c(C(F)F)n[nH]c2-c2cc(N3CCOCC3)ncc2N1 [Example 10, 4-[5-(difluoromethyl)-8-(2,6-difluorophenyl)-3,4,7,9,12-pentazatricyclo[8.4.0.02,6]tetradeca-1(10),2(6),4,7,11,13-hexaen-13-yl]morpholine]	H (H (High permeability)”: A2B (B2A)>5)	H (H (High permeability)”: A2B (B2A)>5)	N (N (Non-substrate)”: ER<2.5)	6.3 to 14.7 mL/min/kg

Next, values leading:

Caco-2 A2B (10^−6 cm/s) (Caco-2 cells)	Caco-2 B2A (10^−6 cm/s) (Caco-2 cells)	Caco-2 ER (Caco-2 cells)	CLhep predicted at 1 µM [1]	Compound
H (H (High permeability)”: A2B (B2A)>5)	H (H (High permeability)”: A2B (B2A)>5)	N (N (Non-substrate)”: ER<2.5)	6.3 to 14.7 mL/min/kg	Cn1nccc1-c1cc2c(cn1)NC(c1c(F)cccc1F)=Nc1c(Cl)n[nH]c1-2 [Example 59, 3-chloro-5-(2,6-difluorophenyl)-9-(1-methyl-1H-pyrazol-5-yl)-1,6-dihydropyrazolo[4,3-d]pyrido[4,3-f][1,3]diazepine]
H (H (High permeability)”: A2B (B2A)>5)	H (H (High permeability)”: A2B (B2A)>5)	N (N (Non-substrate)”: ER<2.5)	6.3 to 14.7 mL/min/kg	Cc1n[nH]c2c1N=C(c1c(F)cccc1F)N1CCc3nc(N4CCOCC4)cc-2c31 [Example 42, 4-[8-(2,6-difluorophenyl)-5-methyl-3,4,7,9,13-pentazatetracyclo[7.6.1.02,6.012,16]hexadeca-1(16),2(6),4,7,12,14-hexaen-14-yl]morpholine]
H (H (High permeability)”: A2B (B2A)>5)	H (H (High permeability)”: A2B (B2A)>5)	N (N (Non-substrate)”: ER<2.5)	6.3 to 14.7 mL/min/kg	Cc1n[nH]c2c1N=C(c1c(F)cccc1F)Nc1c(F)cc(N3CCOCC3)cc1-2 [Example 30, 4-(5-(2,6-difluorophenyl)-7-fluoro-3-methyl-1,6-dihydrobenzo[d]pyrazolo[3,4-f][1,3]diazepin-9-yl)morpholine]
H (H (High permeability)”: A2B (B2A)>5)	H (H (High permeability)”: A2B (B2A)>5)	N (N (Non-substrate)”: ER<2.5)	< 6.3 mL/min/kg	CCc1n[nH]c2c1N=C(c1c(F)cccc1F)Nc1cnc(N3CCOCC3)cc1-2 [Example 31, 4-[8-(2,6-difluorophenyl)-5-ethyl-3,4,7,9,12-pentazatricyclo[8.4.0.02,6]tetradeca-1(10),2(6),4,7,11,13-hexaen-13-yl]morpholine]
H (H (High permeability)”: A2B (B2A)>5)	H (H (High permeability)”: A2B (B2A)>5)	N (N (Non-substrate)”: ER<2.5)	6.3 to 14.7 mL/min/kg	Cc1n[nH]c2c1N=C(c1c(F)cccc1F)Nc1cnc(N3CCO[C@@H](C(F)(F)F)C3)cc1-2 [Example 55, (2R)-4-[8-(2,6-difluorophenyl)-5-methyl-3,4,7,9,12-pentazatricyclo[8.4.0.02,6]tetradeca-1(10),2(6),4,7,11,13-hexaen-13-yl]-2-(trifluoromethyl)morpholine]
H (H (High permeability)”: A2B (B2A)>5)	H (H (High permeability)”: A2B (B2A)>5)	L (L (Likely)”: ER>2.5)	< 6.3 mL/min/kg	[2H]C([2H])([2H])c1n[nH]c2c1N=C(c1c(F)cccc1F)Nc1cnc(N3CCOCC3)cc1-2 [Example 32, 4-[8-(2,6-difluorophenyl)-5-(trideuteriomethyl)-3,4,7,9,12-pentazatricyclo[8.4.0.02,6]tetradeca-1(10),2(6),4,7,11,13-hexaen-13-yl]morpholine]
